We go through 56 molecules from patent publication US11279714B2, “Anti-infective compounds” (priority 2014, dated 2022).

Test [1] concerns Raw 264.7 cells infected with H37Rv-GFP. Put plainly: microbe, parasite or virus in culture. It counts as cell-based, M. tuberculosis. The note with it: for MIC50: Mycobacterium tuberculosis, H37RV, 120 h, read-out: QIM (MIC50).
The subject of test [2] is M. tuberculosis H37Rv expressing the green fluorescent protein (H37Rv-GFP). Put plainly: microbe, parasite or virus in culture. It counts as cell-based. The note with it: for MIC50: Mycobacterium tuberculosis, H37RV, 120 h, read-out: QUM (MIC50).

≈ marks a conversion by molar mass, not a printed value.

Turning to `O=C(Nc1ccc(-c2ccc(F)cn2)cc1)c1cc2sc(N3CCN4CCCC4C3)nc2s1` (stereo not shown) [Compound 324], the MIC50 in test [1] and in test [2] was below 1 µM in each case.

With `CCc1ccc(NC(=O)c2cc3nc(N4CCCCC4)sc3s2)cc1` [Compound 12], the MIC50 in test [1] and in test [2] was above 20 µM throughout.

Take `O=C(Nc1ccc(-c2ccc(F)nc2)cc1)c1cc2sc(N3CCNCC3)nc2s1` [Compound 289]: the MIC50 is below 1 µM in test [1] and 1 to 20 µM (≈ 0.44 to 8.79 µg/mL) in test [2].

For the molecule `COc1ccc(NC(=O)c2cc3nc(N4CCCCC4)sc3s2)cc1` [Compound 2], the MIC50 in test [1] and in test [2] was above 20 µM throughout.

Consider `O=C(Nc1ccc(N2CCC(Oc3ccc(Cl)cc3)CC2)cc1)c1cc2sc(N3CCOCC3)nc2s1` [Compound 193], for which the values for the MIC50 in test [1] and in test [2] were below 1 µM and above 20 µM, respectively.

Take `O=C(Nc1ccc(-c2ccc(F)nc2)cc1)c1cc2sc(NCCN3CCOCC3)nc2s1` [Compound 288]: the MIC50 in test [1] and in test [2] was below 1 µM in each case.

`COc1ccc(-c2ccc(NC(=O)c3cc4sc(N5CCC(C(=O)N(C)C)CC5)nc4s3)cc2)cn1` [Compound 213]: the MIC50 in test [1] and in test [2] was below 1 µM throughout.

Regarding `CCN(CC)c1nc2sc(C(=O)Nc3ccc(OC)cc3)cc2s1` [Compound 287], the MIC50 in test [1] and in test [2] was below 1 µM throughout.

`COC(=O)C1CCN(C(=O)c2cc3nc(N4CCCCC4)sc3s2)CC1` [Compound 24]: the MIC50 is above 20 µM in test [1] and 1 to 20 µM (≈ 0.394 to 7.87 µg/mL) in test [2].

Turning to `O=C(Nc1ccc(N2CCC(Oc3ccc(F)cc3)CC2)cc1)c1cc2sc(NCCN3CCOCC3)nc2s1` [Compound 295], the MIC50 in test [1] and in test [2] was above 20 µM in each case.

On to `COc1ccc(NC(=O)c2cc3sc(N4CCC(CO)CC4)nc3s2)cc1` [Compound 120], for which the MIC50 in test [1] and in test [2] was below 1 µM throughout.

As to `CCN(CCOC)c1nc2sc(C(=O)Nc3ccc4oc(C)nc4c3)cc2s1` [Compound 269], the MIC50 in test [1] and in test [2] was above 20 µM in each case.

In the case of `COc1ccc(CN(CCO)c2nc3sc(C(=O)Nc4ccc5oc(C)nc5c4)cc3s2)cc1` [Compound 248], the MIC50 is below 1 µM in test [1] and 1 to 20 µM (≈ 0.495 to 9.89 µg/mL) in test [2].

Regarding `CN(C)C(=O)CC1CCN(c2nc3sc(C(=O)Nc4ccc(F)cc4)cc3s2)C1` (stereo not shown) [Compound 332], the MIC50 in test [1] and in test [2] was below 1 µM in each case.

Turning to `CC1CCN(c2ccc(NC(=O)c3cc4sc(N5CCNCC5)nc4s3)cc2)CC1` [Compound 344], the results for the MIC50 in test [1] and in test [2] were below 1 µM and 1 to 20 µM (≈ 0.442 to 8.83 µg/mL), respectively.

Consider `CN(CCO)c1nc2sc(C(=O)Nc3ccc(N4CCC(Oc5ccc(F)cc5)CC4)cc3)cc2s1` [Compound 250], for which the MIC50 in test [1] was below 1 µM; in test [2], above 20 µM.

Consider `O=C(Nc1ccc(F)cc1)c1cc2sc(N3CCC(Oc4ccc(Cl)cc4)CC3)nc2s1` [Compound 235], for which the MIC50 in test [1] was below 1 µM; in test [2], above 20 µM.

Regarding `Cc1nc2cc(NC(=O)c3cc4sc(N5CCC(CC(=O)N(C)C)CC5)nc4s3)ccc2o1` [Compound 307], the MIC50 in test [1] and in test [2] was below 1 µM each time.

Regarding `CC(C)(C)CC(=O)NC1CCN(c2nc3sc(C(=O)Nc4ccc(-c5ccc(F)cn5)cc4)cc3s2)CC1` [Compound 349], the MIC50 in test [1] is below 1 µM; in test [2], above 20 µM.

With `O=C(Nc1ccc(CN2CCN(c3ccc(F)cc3)CC2)cc1)c1cc2sc(N3CCOCC3)nc2s1` [Compound 211], the MIC50 in test [1] and in test [2] was below 1 µM in each case.

On to `COc1ccc(NC(=O)c2cc3sc(N4CCC(C(=O)O)CC4)nc3s2)cc1` [Compound 149], for which the MIC50 in test [1] and in test [2] was 1 to 20 µM (≈ 0.418 to 8.35 µg/mL) throughout.

With `O=C(O)c1ccc(NC(=O)c2cc3nc(N4CCCCC4)sc3s2)cc1` [Compound 19], the MIC50 in test [1] is above 20 µM; in test [2] it was 1 to 20 µM (≈ 0.387 to 7.75 µg/mL).

As for `CC1CCN(c2ccc(NC(=O)c3cc4sc(NCCOc5ccc(Cl)cc5)nc4s3)cc2)CC1` [Compound 347], the MIC50 in test [1] and in test [2] was above 20 µM each time.

For the molecule `Cc1ccc(-c2ccc(NC(=O)c3cc4sc(N5CCC(C(=O)N(C)C)CC5)nc4s3)cc2)nc1.Cl` [Compound 258], the “QIM (MIC50, uM)” value in test [1] is “+++ (+++ indicates <1 uM)”. Further, the “QUM (MIC50, uM)” value in test [2] is listed as “++ (++ indicates between 1-20 uM)”.

In the case of `Cc1nc2cc(NC(=O)c3cc4sc(N5CC(C(=O)N(C)C)C5)nc4s3)ccc2o1` [Compound 244], the MIC50 in test [1] was below 1 µM; in test [2], above 20 µM.

Regarding `O=C(Nc1ccc(N2CCC(C(=O)c3ccc(Cl)cc3)CC2)cc1)c1cc2sc(N3CCOCC3)nc2s1` [Compound 226], the MIC50 in test [1] was below 1 µM; in test [2], above 20 µM.

On to `Cc1nc2cc(NC(=O)c3cc4sc(N5CCC(Cc6ccc(Cl)cc6)CC5)nc4s3)ccc2o1` [Compound 236], for which the MIC50 in test [1] was below 1 µM; in test [2], above 20 µM.

Turning to `COc1ccc(NC(=O)c2cc3sc(N4CCC(O)CC4)nc3s2)cc1` [Compound 76], the MIC50 in test [1] and in test [2] was below 1 µM throughout.

As to `Cc1nc2cc(NC(=O)c3cc4sc(NC5CCOCC5)nc4s3)ccc2o1` [Compound 299], the MIC50 in test [1] and in test [2] was below 1 µM each time.

As for `Cc1nc2cc(CNC(=O)c3cc4sc(N5CCOCC5)nc4s3)ccc2o1` [Compound 229], the MIC50 in test [1] was 1 to 20 µM (≈ 0.415 to 8.29 µg/mL); in test [2], above 20 µM.

Take `Cc1nc2cc(NC(=O)c3cc4sc(N5CCOC(CO)C5)nc4s3)ccc2o1` (stereo not shown) [Compound 152]: the MIC50 in test [1] and in test [2] was 1 to 20 µM (≈ 0.431 to 8.61 µg/mL) in each case.

As to `Cc1nc2cc(NC(=O)c3cc4ccc(N5CCOCC5)nc4s3)ccc2o1` [Compound 176], the MIC50 in test [1] and in test [2] was above 20 µM throughout.

Turning to `CN1CCCC(Nc2nc3sc(C(=O)Nc4ccc(F)cc4)cc3s2)C1` (stereo not shown) [Compound 311], the MIC50 in test [1] was 1 to 20 µM (≈ 0.391 to 7.81 µg/mL); in test [2], above 20 µM.

As to `O=C(Nc1ccc(-c2ccc(F)nc2)cc1)c1cc2sc(NCCOc3ccc(Cl)cc3)nc2s1` [Compound 301], the MIC50 in test [1] was below 1 µM; in test [2], above 20 µM.

`COCCN(C)c1nc2sc(C(=O)Nc3ccc(-c4ccc(F)nc4)cc3)cc2s1` [Compound 271]: the MIC50 in test [1] and in test [2] was below 1 µM each time.

As for `O=C(Nc1ccc(-c2ccc(F)cn2)cc1)c1cc2sc(NCC(O)C(F)(F)F)nc2s1` (stereo not shown) [Compound 340], the MIC50 in test [1] is below 1 µM; in test [2], 1 to 20 µM (≈ 0.482 to 9.65 µg/mL).

On to `COC(CN(C)c1nc2sc(C(=O)Nc3ccc4oc(C)nc4c3)cc2s1)C(F)(F)F` (stereo not shown) [Compound 263], for which the MIC50 in test [1] and in test [2] was above 20 µM in each case.

Consider `Cc1nc2cc(NC(=O)c3cc4sc(N5CCC(Oc6ccc(Cl)cc6)CC5)nc4s3)ccc2o1` [Compound 207], for which the figures for the MIC50 in test [1] and in test [2] were below 1 µM and 1 to 20 µM (≈ 0.525 to 10.5 µg/mL), respectively.

Turning to `CNC(=O)C1CCN(c2nc3sc(C(=O)Nc4ccc5oc(C)nc5c4)cc3s2)CC1` [Compound 212], the MIC50 in test [1] is below 1 µM; in test [2] it was 1 to 20 µM (≈ 0.456 to 9.11 µg/mL).

As for `COc1ccc(NC(=O)c2cc3nc(N4CCOCC4)sc3s2)cc1` [Compound 27], the MIC50 was 1 to 20 µM (≈ 0.375 to 7.51 µg/mL) in test [1] and above 20 µM in test [2].

Consider `Cn1ccc(-c2ccc(NC(=O)c3cc4sc(NCCN5CCOCC5)nc4s3)cc2)n1` [Compound 319], for which the results for the MIC50 in test [1] and in test [2] were below 1 µM and 1 to 20 µM (≈ 0.469 to 9.37 µg/mL), respectively.

Consider `CN(C)C(=O)CC1CCN(c2nc3sc(C(=O)Nc4ccc(-c5ccc(F)nc5)cc4)cc3s2)C1` (stereo not shown) [Compound 350], for which the MIC50 in test [1] and in test [2] was below 1 µM each time.

For the molecule `CN(CCO)c1nc2sc(C(=O)Nc3ccc4oc(Cc5ccc(F)cc5)nc4c3)cc2s1` [Compound 251], the MIC50 in test [1] is below 1 µM; in test [2] it was 1 to 20 µM (≈ 0.483 to 9.65 µg/mL).

Turning to `O=C(Nc1ccc(-c2ccc(F)cn2)cc1)c1cc2sc(N3CCNCC3)nc2s1` [Compound 315], the MIC50 is below 1 µM in test [1] and 1 to 20 µM (≈ 0.44 to 8.79 µg/mL) in test [2].

On to `Cc1nnc(-c2ccc(NC(=O)c3cc4sc(N5CCC(C(=O)N(C)C)CC5)nc4s3)cc2)o1` [Compound 184], for which the MIC50 in test [1] and in test [2] was above 20 µM throughout.

For the molecule `Cc1nc2cc(NC(=O)c3cc4sc(NCCN5CCN(C)CC5)nc4s3)ccc2o1` [Compound 326], the MIC50 in test [1] and in test [2] was above 20 µM in each case.

`COc1ccc(NC(=O)c2cc3sc(N4CCNCC4)nc3s2)cc1` [Compound 92]: the MIC50 in test [1] and in test [2] was 1 to 20 µM (≈ 0.374 to 7.49 µg/mL) in each case.

Regarding `COCCN(C)c1nc2sc(C(=O)Nc3ccc4oc(C)nc4c3)cc2s1` [Compound 202], the MIC50 in test [1] and in test [2] was below 1 µM each time.

Take `Cc1nc2cc(NC(=O)c3cc4sc(N5CCC(CC(=O)N(C)C)C5)nc4s3)ccc2o1` (stereo not shown) [Compound 308]: the MIC50 in test [1] and in test [2] was below 1 µM throughout.

With `Cc1nc2cc(NC(=O)c3cc4sc(N5CC[C@@H](C(=O)N(C)C)C5)nc4s3)ccc2o1` [Compound 223], the MIC50 in test [1] and in test [2] was 1 to 20 µM (≈ 0.456 to 9.11 µg/mL) in each case.

With `CN(CCO)c1nc2sc(C(=O)Nc3ccc(-c4ccc(F)nc4)cc3)cc2s1` [Compound 272], the MIC50 in test [1] and in test [2] was below 1 µM throughout.

Take `CN(CCCO)c1nc2sc(C(=O)Nc3ccc(-c4ccc(F)nc4)cc3)cc2s1` [Compound 291]: the MIC50 in test [1] and in test [2] was below 1 µM in each case.

As to `COc1ccc(-c2ccc(NC(=O)c3cc4sc(NCCN5CCOCC5)nc4s3)cc2)cn1` [Compound 292], the results for the MIC50 in test [1] and in test [2] were below 1 µM and 1 to 20 µM (≈ 0.496 to 9.91 µg/mL), respectively.

Regarding `Cc1ccc(-c2ccc(NC(=O)c3cc4sc(N5CCNCC5)nc4s3)cc2)nc1` [Compound 346], the MIC50 in test [1] was below 1 µM; in test [2], 1 to 20 µM (≈ 0.436 to 8.71 µg/mL).

As for `Cc1nc2cc(NC(=O)c3cc4sc(NCCC5CCOCC5)nc4s3)ccc2o1` [Compound 333], the MIC50 is below 1 µM in test [1] and 1 to 20 µM (≈ 0.443 to 8.85 µg/mL) in test [2].

As to `CCCC(=O)Nc1nc2sc(C(=O)Nc3ccc4oc(C)nc4c3)cc2s1` [Compound 243], the MIC50 in test [1] is below 1 µM; in test [2] it was above 20 µM.
